US20190256474A1, “N-PHENYL-2-(3-PHENYL-6-OXO-1,6-DIHYDROPYRIDAZIN-1-YL)ACETAMIDE DERIVATIVES FOR TREATING CYSTIC FIBROSIS” (Proteostasis Therapeutics, Inc., priority 2016, published 2019)

Target: T1, ΔF508-CFTR (Homo sapiens, UniProt P13569, DEL508-508)
T1 construct: Primary lung epithelial cells homozygous for the Cystic Fibrosis-causing ΔF508 mutation were differentiated; endogenous in cells; host or cells: primary human bronchial epithelial cells (hBE), ΔF508/ΔF508
Experiment: hBE equivalent current (Ieq) assay, CFTR activity
Assay type: cell-based
Conditions: relative to a CFTR amplifier at 3 μM, ΔF508 homozygous hBE, 24 h treatment; for Activity 3 μM: compound at 3 μM; for Activity 10 μM: compound at 10 μM
Procedure: Primary lung epithelial cells homozygous for the Cystic Fibrosis-causing ΔF508 mutation were differentiated for a minimum of 4 weeks in an air-liquid interface on Costar 24 well HTS filter plates prior to the equivalent current (Ieq) measurements. Cells were apically mucus-washed for 30 minutes 24 h prior to treatment with compounds. The basolateral media was removed and replaced with media containing the compound of interest diluted to its final concentration from DMSO stocks. Treated cells were incubated at 37° C. and 5% CO2 for 24 hours. At the end of the treatment period, the media was changed to the Ieq experimental solution for 2 hours before the experiment and plates are maintained in a CO2-free incubator during this period. The plates containing the cells were then placed in pre-warmed heating blocks at 36° C.±0.5 for 15 minutes before measurements are taken. The transepithelial voltage (VT) and conductance (GT) were measured using a custom 24 channel current clamp (TECC-24) with 24 well electrode manifold. The Ieq assay measurements were made following additions with standardized time periods:
1. The baseline VT and GT values were measured for approximately 20 minutes.
2. Benzamil was added to block ENaC for 15 minutes.
3. Forskolin plus VX-770 were added to maximally activate ΔF508-CFTR for 27 minutes.
4. Bumetanide was added to inhibit the NaK2Cl cotransporter and shut-off secretion of chloride.
The activity data captured was the area under the curve (AUC) for the traces of the equivalent chloride current. The AUC was collected from the time of the forskolin/VX-770 addition until the inhibition by bumetanide addition. Correction in response to compound treatment was scored as the increase in the AUC for compound-treated samples over that of vehicle-treated samples.
The results are shown below in Table 1. + indicates activity <150% of a CFTR amplifier with compound at concentration shown and amplifier at 3 μM; ++ indicates activity >150% of a CFTR amplifier with compound at concentration shown and amplifier at 3 μM.

T1 sequence (P13569 with tags, fused parts or gaps DEL508-508): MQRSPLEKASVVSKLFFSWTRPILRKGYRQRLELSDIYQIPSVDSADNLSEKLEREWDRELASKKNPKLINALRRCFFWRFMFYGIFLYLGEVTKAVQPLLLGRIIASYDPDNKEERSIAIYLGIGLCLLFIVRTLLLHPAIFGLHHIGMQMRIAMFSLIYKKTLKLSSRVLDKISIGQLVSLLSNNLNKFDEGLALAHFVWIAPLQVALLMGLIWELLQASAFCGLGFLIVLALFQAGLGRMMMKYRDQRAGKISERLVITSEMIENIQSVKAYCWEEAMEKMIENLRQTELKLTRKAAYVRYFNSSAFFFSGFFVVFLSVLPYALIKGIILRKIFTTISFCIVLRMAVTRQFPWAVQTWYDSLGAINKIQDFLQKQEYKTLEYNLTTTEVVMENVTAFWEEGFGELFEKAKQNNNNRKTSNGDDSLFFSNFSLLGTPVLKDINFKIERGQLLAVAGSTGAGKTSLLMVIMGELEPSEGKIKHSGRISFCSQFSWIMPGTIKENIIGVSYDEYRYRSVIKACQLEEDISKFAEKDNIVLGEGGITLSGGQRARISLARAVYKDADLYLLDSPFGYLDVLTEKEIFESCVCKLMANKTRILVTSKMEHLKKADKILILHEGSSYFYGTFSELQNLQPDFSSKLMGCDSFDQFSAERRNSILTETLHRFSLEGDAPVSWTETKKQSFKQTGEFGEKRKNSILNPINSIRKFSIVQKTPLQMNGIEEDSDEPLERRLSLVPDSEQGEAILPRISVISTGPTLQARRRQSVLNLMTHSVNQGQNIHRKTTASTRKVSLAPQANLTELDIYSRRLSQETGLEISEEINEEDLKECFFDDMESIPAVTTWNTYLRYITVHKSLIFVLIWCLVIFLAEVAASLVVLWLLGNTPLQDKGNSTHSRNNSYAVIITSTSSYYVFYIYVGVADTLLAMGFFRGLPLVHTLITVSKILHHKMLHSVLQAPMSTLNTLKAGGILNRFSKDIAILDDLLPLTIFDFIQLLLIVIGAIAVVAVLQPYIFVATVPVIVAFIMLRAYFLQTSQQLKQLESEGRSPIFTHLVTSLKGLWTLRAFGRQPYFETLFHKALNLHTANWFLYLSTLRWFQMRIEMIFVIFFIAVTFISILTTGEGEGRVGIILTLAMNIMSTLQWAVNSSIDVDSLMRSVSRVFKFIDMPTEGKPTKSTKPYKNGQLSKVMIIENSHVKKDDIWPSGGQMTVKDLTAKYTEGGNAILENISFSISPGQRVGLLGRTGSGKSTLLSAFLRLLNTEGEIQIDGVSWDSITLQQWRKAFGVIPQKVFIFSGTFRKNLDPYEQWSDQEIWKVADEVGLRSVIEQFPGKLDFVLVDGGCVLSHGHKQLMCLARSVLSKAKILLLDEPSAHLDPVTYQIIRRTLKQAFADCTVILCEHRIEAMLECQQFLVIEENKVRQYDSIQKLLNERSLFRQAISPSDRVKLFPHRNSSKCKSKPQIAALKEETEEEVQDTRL

Row | SMILES | Activity 3 μM | Activity 10 μM
1 | CC(C(=O)Nc1cc(F)cc(F)c1)n1nc(-c2cccc(Cl)c2)ccc1=O (stereo not shown) [Compound 1, 2-[3-(3-Chlorophenyl)-6-oxo-1,6-dihydropyridazin-1-yl]-N-(3,5-difluorophenyl)propanamide] | ++ (activity >150% of a CFTR amplifier with compound at concentration shown and amplifier at 3 μM) | ++ (activity >150% of a CFTR amplifier with compound at concentration shown and amplifier at 3 μM)
2 | CC(C(=O)Nc1cc(F)cc(F)c1)n1nc(-c2cccc(OC(F)(F)F)c2)ccc1=O (stereo not shown) [Compound 2, N-(3,5-Ddifluorophenyl)-2-[6-oxo-3-[3-(trifluoromethoxy)phenyl]-1,6-dihydropyridazin-1-yl]propanamide] | + (activity <150% of a CFTR amplifier with compound at concentration shown and amplifier at 3 μM) | + (activity <150% of a CFTR amplifier with compound at concentration shown and amplifier at 3 μM)
3 | COc1cc(OC)cc(-c2ccc(=O)n(C(C)C(=O)Nc3cc(F)cc(F)c3)n2)c1 (stereo not shown) [Compound 3, N-(3,5-difluorophenyl)-2-[3-(3,5-dimethoxyphenyl)-6-oxo-1,6-dihydropyridazin-1-yl]propanamide] | ++ (activity >150% of a CFTR amplifier with compound at concentration shown and amplifier at 3 μM) | ++ (activity >150% of a CFTR amplifier with compound at concentration shown and amplifier at 3 μM)
4 | CC(C(=O)Nc1cc(F)cc(F)c1)n1nc(-c2cccc(N(C)C)c2)ccc1=O (stereo not shown) [Compound 4, N-(3,5-Difluorophenyl)-2-[3-[3-(dimethylamino)phenyl]-6-oxo-1,6-dihydropyridazin-1-yl]propanamide] |  | + (activity <150% of a CFTR amplifier with compound at concentration shown and amplifier at 3 μM)
5 | CC(C(=O)Nc1cc(F)cc(F)c1)n1nc(-c2cccc(-c3ccccc3)c2)ccc1=O (stereo not shown) [Compound 5, N-(3,5-Difluorophenyl)-2-[6-oxo-3-(3-phenylphenyl)-1,6-dihydropyridazin-1-yl]propanamide] | + (activity <150% of a CFTR amplifier with compound at concentration shown and amplifier at 3 μM) | + (activity <150% of a CFTR amplifier with compound at concentration shown and amplifier at 3 μM)
6 | COc1cccc(NC(=O)C(C)n2nc(-c3cccc(OC)c3)ccc2=O)c1 (stereo not shown) [Compound 6, N-(3-Methoxyphenyl)-2-[3-(3-methoxyphenyl)-6-oxo-1,6-dihydropyridazin-1-yl]propanamide] | + (activity <150% of a CFTR amplifier with compound at concentration shown and amplifier at 3 μM) | + (activity <150% of a CFTR amplifier with compound at concentration shown and amplifier at 3 μM)
7 | COc1cccc(-c2ccc(=O)n(C(C)C(=O)Nc3cccc(C(F)(F)F)c3)n2)c1 (stereo not shown) [Compound 7, 2-[3-(3-Methoxyphenyl)-6-oxo-1,6-dihydropyridazin-1-yl]-N-[3-(trifluoromethyl)phenyl]propanamide] | + (activity <150% of a CFTR amplifier with compound at concentration shown and amplifier at 3 μM) | + (activity <150% of a CFTR amplifier with compound at concentration shown and amplifier at 3 μM)
8 | COc1cccc(-c2ccc(=O)n(C(C)C(=O)Nc3ccccc3C(C)(C)C)n2)c1 (stereo not shown) [Compound 9, N-(2-tert-Butylphenyl)-2-[3-(3-methoxyphenyl)-6-oxo-1,6-dihydropyridazin-1-yl]propanamide] | + (activity <150% of a CFTR amplifier with compound at concentration shown and amplifier at 3 μM) | + (activity <150% of a CFTR amplifier with compound at concentration shown and amplifier at 3 μM)
9 | COc1cccc(-c2ccc(=O)n(C(C)C(=O)Nc3cccc(C(C)(C)C)c3)n2)c1 (stereo not shown) [Compound 10, N-(3-tert-Butylphenyl)-2-[3-(3-methoxyphenyl)-6-oxo-1,6-dihydropyridazin-1-yl]propanamide] |  | ++ (activity >150% of a CFTR amplifier with compound at concentration shown and amplifier at 3 μM)
10 | COc1cccc(-c2ccc(=O)n(C(C)C(=O)Nc3ccc(C(C)(C)C)cc3)n2)c1 (stereo not shown) [Compound 11, N-(4-tert-Butylphenyl)-2-[3-(3-methoxyphenyl)-6-oxo-1,6-dihydropyridazin-1-yl]propanamide] |  | + (activity <150% of a CFTR amplifier with compound at concentration shown and amplifier at 3 μM)
11 | COc1cccc(-c2ccc(=O)n(C(C)C(=O)Nc3ccccc3Cl)n2)c1 (stereo not shown) [Compound 12, N-(2-Chlorophenyl)-2-[3-(3-methoxyphenyl)-6-oxo-1,6-dihydropyridazin-1-yl]propanamide] | + (activity <150% of a CFTR amplifier with compound at concentration shown and amplifier at 3 μM) | + (activity <150% of a CFTR amplifier with compound at concentration shown and amplifier at 3 μM)
12 | COc1cccc(-c2ccc(=O)n(C(C)C(=O)Nc3cccc(Cl)c3)n2)c1 (stereo not shown) [Compound 13, N-(3-Chlorophenyl)-2-[3-(3-methoxyphenyl)-6-oxo-1,6-dihydropyridazin-1-yl]propanamide] | ++ (activity >150% of a CFTR amplifier with compound at concentration shown and amplifier at 3 μM) | ++ (activity >150% of a CFTR amplifier with compound at concentration shown and amplifier at 3 μM)
13 | COc1cccc(-c2ccc(=O)n(C(C)C(=O)Nc3ccc(Cl)cc3)n2)c1 (stereo not shown) [Compound 14, N-(4-Chlorophenyl)-2-[3-(3-methoxyphenyl)-6-oxo-1,6-dihydropyridazin-1-yl]propanamide] |  | ++ (activity >150% of a CFTR amplifier with compound at concentration shown and amplifier at 3 μM)
14 | COc1cccc(-c2ccc(=O)n(C(C)C(=O)Nc3ccccc3)n2)c1 (stereo not shown) [Compound 15, 2-[3-(3-Methoxyphenyl)-6-oxo-1,6-dihydropyridazin-1-yl]-N-phenylpropanamide] | + (activity <150% of a CFTR amplifier with compound at concentration shown and amplifier at 3 μM) | + (activity <150% of a CFTR amplifier with compound at concentration shown and amplifier at 3 μM)
15 | COc1cccc(-c2ccc(=O)n(CC(=O)Nc3cc(F)cc(F)c3)n2)c1 [Compound 16, N-(3,5-Difluorophenyl)-2-[3-(3-methoxyphenyl)-6-oxo-1,6-dihydropyridazin-1-yl]acetamide] |  | + (activity <150% of a CFTR amplifier with compound at concentration shown and amplifier at 3 μM)
16 | COc1cccc(-c2ccc(=O)n(C(C)C(=O)N(C)c3cc(F)cc(F)c3)n2)c1 (stereo not shown) [Compound 17, N-(3,5-Difluorophenyl)-2-[3-(3-methoxyphenyl)-6-oxo-1,6-dihydropyridazin-1-yl]-N-methylpropanamide] | + (activity <150% of a CFTR amplifier with compound at concentration shown and amplifier at 3 μM) | + (activity <150% of a CFTR amplifier with compound at concentration shown and amplifier at 3 μM)
17 | COc1cccc(-c2ccc(=O)n(C(C)(C)C(=O)Nc3cc(F)cc(F)c3)n2)c1 [Compound 18, N-(3,5-Difluorophenyl)-2-(3-(3-methoxyphenyl)-6-oxopyridazin-1(6H)-yl)-2-methylpropanamide] | + (activity <150% of a CFTR amplifier with compound at concentration shown and amplifier at 3 μM) | + (activity <150% of a CFTR amplifier with compound at concentration shown and amplifier at 3 μM)
18 | Cc1ccc(-c2ccc(=O)n(C(C)C(=O)Nc3cc(F)cc(F)c3)n2)cc1O (stereo not shown) [Compound 19, N-(3,5-Difluorophenyl)-2-[3-(3-hydroxy-4-methylphenyl)-6-oxo-1,6-dihydropyridazin-1-yl]propanamide] |  | + (activity <150% of a CFTR amplifier with compound at concentration shown and amplifier at 3 μM)
19 | COc1cccc(-c2cc(C)c(=O)n(C(C)C(=O)Nc3cc(F)cc(F)c3)n2)c1 (stereo not shown) [Compound 20, N-(3,5-Difluorophenyl)-2-[3-(3-methoxyphenyl)-5-methyl-6-oxo-1,6-dihydropyridazin-1-yl]propanamide] | + (activity <150% of a CFTR amplifier with compound at concentration shown and amplifier at 3 μM) | + (activity <150% of a CFTR amplifier with compound at concentration shown and amplifier at 3 μM)
20 | COc1cccc(-c2nn(C(C)C(=O)Nc3cc(F)cc(F)c3)c(=O)cc2C)c1 (stereo not shown) [Compound 21, N-(3,5-Difluorophenyl)-2-[3-(3-methoxyphenyl)-4-methyl-6-oxo-1,6-dihydropyridazin-1-yl]propanamide] | + (activity <150% of a CFTR amplifier with compound at concentration shown and amplifier at 3 μM) | + (activity <150% of a CFTR amplifier with compound at concentration shown and amplifier at 3 μM)
